Source: patent publication US6579882B2, “Cell adhesion-inhibiting antiinflammatory compounds” (Abbott Laboratories, priority 1998, dated 2003)

Experiments:
ICAM-1 = experiment: CAM ELISA: ICAM-1 expression on TNF-stimulated HUVECs; format: cell-based; settings: 1 μM compound, primary human umbilical vein endothelial cells, compound 24 hours, then TNF 5 ng/mL 6 hours
How it was run: (§1)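 Pooled primary HUVECs (passages 3–7), hydrocortisone-free medium, pretreated 24 h with compound at 37° C, then stimulated with TNF 5 ng/mL for 6 h. Surface VCAM-1, ICAM-1 or E-selectin measured by cell ELISA: specific mouse primary antibody, HRP anti-mouse secondary, OPD development, absorbance at 490 nm.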

E-Selectin = experiment: CAM ELISA: E-selectin expression on TNF-stimulated HUVECs; format: cell-based; settings: 1 μM compound, primary human umbilical vein endothelial cells, compound 24 hours, then TNF 5 ng/mL 6 hours
How it was run: as §1

VCAM-1 = experiment: CAM ELISA: VCAM-1 expression on TNF-stimulated HUVECs; format: cell-based; settings: 1 μM compound, primary human umbilical vein endothelial cells, compound 24 hours, then TNF 5 ng/mL 6 hours
How it was run: as §1

In the case of CCOCCOCCOCC1(c2ccc(Oc3cncc4sc(-c5nnc(N)o5)cc34)cc2)CC1 [Example 228, 5-{4-[4-(1-{[2-(2-Ethoxyethoxy)ethoxy]methyl}cyclopropyl)phenoxy]thieno[2,3-c]pyridin-2-yl}-1,3,4-oxadiazol-2-amine], the “CAM ELISA % Inhibition at 1 μM ICAM-1” value (ICAM-1) is reported as 64%, the inhibition at 1 µM (ICAM-1; Homo sapiens, Endothelial cell) is reported as 68% and the melting point is reported as 113 to 114 °C. For the same compound, the “CAM ELISA % Inhibition at 1 μM E-Selectin” value (E-Selectin) was 67%, the inhibition at 1 µM (E-Selectin; Homo sapiens, Endothelial cell) was 70% and the “CAM ELISA % Inhibition at 1 μM VCAM-1” value (VCAM-1) was 52%. It also gave an inhibition at 1 µM (VCAM-1; Homo sapiens, Endothelial cell) of 54%.
